# Measurements as given in article doi:10.1101/2021.04.08.439011v1 (biorxiv, 2021).
# Like-named read-outs stand apart in the source and are kept apart here.
# Key:
# EGFR = EGFR (Homo sapiens, UniProt P00533); settings: 1 µM; binder
# PDPK1 = PDPK1 (Homo sapiens, UniProt O15530); settings: 1 µM; binder
# DYRK1A = DYRK1A (Homo sapiens, UniProt Q13627); settings: 1 µM; binder
# RIPK4 = RIPK4 (Homo sapiens, UniProt P57078); settings: 1 µM; binder
# ZAP70 = ZAP70 (Homo sapiens, UniProt P43403); settings: 1 µM; binder
# NEK11 = NEK11 (Homo sapiens, UniProt Q8NG66); settings: 1 µM; binder
# AURKC = AURKC (Homo sapiens, UniProt Q9UQB9); settings: 1 µM; binder
# ADCK3 = ADCK3 (Homo sapiens, UniProt Q8NI60); settings: 1 µM; binder
# BMX = BMX (Homo sapiens, UniProt P51813); settings: 1 µM; binder
# FLT3(D835H) = FLT3(D835H) (Homo sapiens, UniProt P36888, D835H); settings: 1 µM; binder
# MET(M1250T) = MET(M1250T) (Homo sapiens, UniProt P08581, M1250T); settings: 1 µM; binder
# PKAC-alpha = PKAC-alpha (Homo sapiens, UniProt P17612); settings: 1 µM; binder
# CDK4-cyclinD1 = CDK4-cyclinD1 (Homo sapiens, UniProt P11802); settings: 1 µM; binder
# p38-beta = p38-beta (Homo sapiens, UniProt Q15759); settings: 1 µM; binder
# BTK = BTK (Homo sapiens, UniProt Q06187); settings: 1 µM; binder
# PAK1 = PAK1 (Homo sapiens, UniProt Q13153); settings: 1 µM; binder
# MAP4K2 = MAP4K2 (Homo sapiens, UniProt Q12851); settings: 1 µM; binder
# JAK2 = JAK2 (Homo sapiens, UniProt O60674); settings: JH1 domain catalytic; binder
# DCAMKL2 = DCAMKL2 (Homo sapiens, UniProt Q8N568); settings: 1 µM; binder
# ICK = ICK (Homo sapiens, UniProt Q9UPZ9); settings: 1 µM; binder
# BRK = BRK (Homo sapiens, UniProt Q13882); settings: 1 µM; binder
# TAOK2 = TAOK2 (Homo sapiens, UniProt Q9UL54); settings: 1 µM; binder
# ABL1(H396P) = ABL1(H396P) (Homo sapiens, UniProt P00519, H396P); settings: 1 µM, binder
# BIKE = BIKE (Homo sapiens, UniProt Q9NSY1); settings: 1 µM; binder
# JNK1 = JNK1 (Homo sapiens, UniProt P45983); settings: 1 µM; binder
# TRKA = TRKA (Homo sapiens, UniProt P04629); settings: 1 µM; binder
# RPS6KA2 = RPS6KA2 (Homo sapiens, UniProt Q15349); settings: binder
# MAK = MAK (Homo sapiens, UniProt P20794); settings: 1 µM; binder
# RET(V804L) = RET(V804L) (Homo sapiens, UniProt P07949, V804L); settings: 1 µM; binder
# PCTK3 = PCTK3 (Homo sapiens, UniProt Q07002); settings: 1 µM; binder
# Sequence of RPS6KA2 (Q15349 whole entry): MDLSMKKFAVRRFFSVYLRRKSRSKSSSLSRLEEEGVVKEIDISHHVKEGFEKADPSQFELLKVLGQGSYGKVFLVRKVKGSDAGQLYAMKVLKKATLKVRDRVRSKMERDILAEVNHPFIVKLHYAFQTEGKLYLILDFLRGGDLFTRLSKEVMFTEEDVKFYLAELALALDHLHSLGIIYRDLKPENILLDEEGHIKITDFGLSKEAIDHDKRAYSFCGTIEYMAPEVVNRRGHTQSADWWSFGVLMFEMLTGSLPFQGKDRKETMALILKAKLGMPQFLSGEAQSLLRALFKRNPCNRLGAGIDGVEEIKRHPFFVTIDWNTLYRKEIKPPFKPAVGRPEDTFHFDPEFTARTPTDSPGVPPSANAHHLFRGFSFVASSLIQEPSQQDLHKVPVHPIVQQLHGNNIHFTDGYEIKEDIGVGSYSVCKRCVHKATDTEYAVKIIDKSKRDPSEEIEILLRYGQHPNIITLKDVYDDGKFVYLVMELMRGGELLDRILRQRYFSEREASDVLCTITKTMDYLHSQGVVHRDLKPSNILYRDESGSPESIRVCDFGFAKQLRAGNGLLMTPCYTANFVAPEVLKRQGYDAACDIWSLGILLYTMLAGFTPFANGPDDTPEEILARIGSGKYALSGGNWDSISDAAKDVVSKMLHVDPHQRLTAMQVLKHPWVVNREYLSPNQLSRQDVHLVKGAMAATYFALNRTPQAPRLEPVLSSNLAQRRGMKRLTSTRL
# Sequence of p38-beta (Q15759 whole entry): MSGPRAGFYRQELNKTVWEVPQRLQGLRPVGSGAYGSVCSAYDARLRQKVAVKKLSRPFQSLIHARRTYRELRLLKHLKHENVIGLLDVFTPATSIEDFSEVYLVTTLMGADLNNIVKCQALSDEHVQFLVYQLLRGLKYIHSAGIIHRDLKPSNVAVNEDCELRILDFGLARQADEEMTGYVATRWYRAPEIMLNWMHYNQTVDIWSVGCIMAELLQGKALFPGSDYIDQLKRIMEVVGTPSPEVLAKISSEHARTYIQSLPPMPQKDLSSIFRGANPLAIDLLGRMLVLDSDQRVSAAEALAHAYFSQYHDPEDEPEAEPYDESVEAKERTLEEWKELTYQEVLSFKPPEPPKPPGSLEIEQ
# Sequence of PDPK1 (O15530 whole entry): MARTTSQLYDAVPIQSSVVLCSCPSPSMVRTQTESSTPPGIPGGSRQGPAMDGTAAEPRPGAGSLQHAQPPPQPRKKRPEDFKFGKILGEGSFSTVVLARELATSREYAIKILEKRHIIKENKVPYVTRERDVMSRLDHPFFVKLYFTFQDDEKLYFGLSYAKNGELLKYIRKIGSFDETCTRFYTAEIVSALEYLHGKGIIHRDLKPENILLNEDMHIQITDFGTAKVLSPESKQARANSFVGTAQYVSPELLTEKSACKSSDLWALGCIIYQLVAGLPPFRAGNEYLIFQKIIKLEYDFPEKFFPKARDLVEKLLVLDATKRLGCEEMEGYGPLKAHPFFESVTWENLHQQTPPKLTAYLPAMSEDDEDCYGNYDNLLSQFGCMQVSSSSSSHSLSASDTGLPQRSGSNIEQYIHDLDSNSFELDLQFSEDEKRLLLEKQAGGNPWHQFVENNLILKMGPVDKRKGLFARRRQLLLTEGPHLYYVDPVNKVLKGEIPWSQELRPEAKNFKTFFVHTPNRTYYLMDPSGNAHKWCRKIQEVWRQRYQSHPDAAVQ
# Sequence of PAK1 (Q13153 whole entry): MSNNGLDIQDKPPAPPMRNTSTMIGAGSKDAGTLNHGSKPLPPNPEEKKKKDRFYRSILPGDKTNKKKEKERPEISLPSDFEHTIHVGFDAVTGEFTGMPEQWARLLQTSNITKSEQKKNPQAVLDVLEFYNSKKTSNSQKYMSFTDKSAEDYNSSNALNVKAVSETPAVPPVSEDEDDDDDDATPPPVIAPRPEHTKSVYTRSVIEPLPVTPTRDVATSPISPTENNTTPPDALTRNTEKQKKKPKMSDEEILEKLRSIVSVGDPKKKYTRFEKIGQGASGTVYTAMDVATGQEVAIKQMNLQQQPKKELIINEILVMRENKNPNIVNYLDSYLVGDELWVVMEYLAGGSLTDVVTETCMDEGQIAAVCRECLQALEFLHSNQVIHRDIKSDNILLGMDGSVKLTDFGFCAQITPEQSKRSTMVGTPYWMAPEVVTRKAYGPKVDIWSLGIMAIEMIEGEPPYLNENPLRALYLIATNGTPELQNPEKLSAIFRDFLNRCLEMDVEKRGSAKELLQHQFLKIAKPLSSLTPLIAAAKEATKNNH
# Sequence of TRKA (P04629 whole entry): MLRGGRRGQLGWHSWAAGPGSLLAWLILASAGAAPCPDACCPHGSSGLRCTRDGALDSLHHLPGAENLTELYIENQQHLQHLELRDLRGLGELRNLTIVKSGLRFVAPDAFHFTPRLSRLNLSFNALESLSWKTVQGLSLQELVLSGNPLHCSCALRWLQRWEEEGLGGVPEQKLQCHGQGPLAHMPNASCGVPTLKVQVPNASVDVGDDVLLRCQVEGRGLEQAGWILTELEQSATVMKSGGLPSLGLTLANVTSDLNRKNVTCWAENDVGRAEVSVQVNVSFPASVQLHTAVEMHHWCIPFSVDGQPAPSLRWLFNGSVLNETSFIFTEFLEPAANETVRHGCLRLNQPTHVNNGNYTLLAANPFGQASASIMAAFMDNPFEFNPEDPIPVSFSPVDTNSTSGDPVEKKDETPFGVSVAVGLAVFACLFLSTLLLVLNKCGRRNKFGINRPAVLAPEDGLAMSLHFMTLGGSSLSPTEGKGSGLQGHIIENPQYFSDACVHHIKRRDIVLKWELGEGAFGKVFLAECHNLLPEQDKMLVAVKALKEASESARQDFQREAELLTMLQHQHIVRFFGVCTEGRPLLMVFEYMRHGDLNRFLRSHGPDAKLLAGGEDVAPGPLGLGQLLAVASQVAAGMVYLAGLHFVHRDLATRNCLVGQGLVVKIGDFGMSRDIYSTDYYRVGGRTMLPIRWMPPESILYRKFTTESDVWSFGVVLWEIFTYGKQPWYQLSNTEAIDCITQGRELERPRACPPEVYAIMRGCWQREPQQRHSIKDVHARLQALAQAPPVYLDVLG
# Sequence of DCAMKL2 (Q8N568 whole entry): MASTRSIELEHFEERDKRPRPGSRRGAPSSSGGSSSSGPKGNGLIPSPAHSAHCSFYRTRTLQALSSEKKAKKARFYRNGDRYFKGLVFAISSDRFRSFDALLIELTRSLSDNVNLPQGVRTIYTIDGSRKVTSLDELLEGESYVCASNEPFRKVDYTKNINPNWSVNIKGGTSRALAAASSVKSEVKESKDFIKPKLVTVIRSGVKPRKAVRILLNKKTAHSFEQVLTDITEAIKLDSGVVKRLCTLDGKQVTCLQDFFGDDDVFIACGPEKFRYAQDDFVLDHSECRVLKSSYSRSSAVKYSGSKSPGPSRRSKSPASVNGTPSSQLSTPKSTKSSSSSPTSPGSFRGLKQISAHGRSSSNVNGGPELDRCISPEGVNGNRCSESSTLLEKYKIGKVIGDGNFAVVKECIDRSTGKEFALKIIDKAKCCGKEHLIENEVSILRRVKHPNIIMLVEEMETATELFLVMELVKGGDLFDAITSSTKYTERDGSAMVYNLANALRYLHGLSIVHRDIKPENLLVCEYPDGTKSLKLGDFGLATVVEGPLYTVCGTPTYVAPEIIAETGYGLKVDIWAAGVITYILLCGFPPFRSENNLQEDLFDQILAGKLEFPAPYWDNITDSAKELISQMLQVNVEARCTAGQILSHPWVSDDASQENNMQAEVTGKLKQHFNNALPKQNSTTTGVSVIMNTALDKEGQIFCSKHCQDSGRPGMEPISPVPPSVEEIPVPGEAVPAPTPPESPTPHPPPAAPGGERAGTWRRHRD
# Sequence of BIKE (Q9NSY1 whole entry): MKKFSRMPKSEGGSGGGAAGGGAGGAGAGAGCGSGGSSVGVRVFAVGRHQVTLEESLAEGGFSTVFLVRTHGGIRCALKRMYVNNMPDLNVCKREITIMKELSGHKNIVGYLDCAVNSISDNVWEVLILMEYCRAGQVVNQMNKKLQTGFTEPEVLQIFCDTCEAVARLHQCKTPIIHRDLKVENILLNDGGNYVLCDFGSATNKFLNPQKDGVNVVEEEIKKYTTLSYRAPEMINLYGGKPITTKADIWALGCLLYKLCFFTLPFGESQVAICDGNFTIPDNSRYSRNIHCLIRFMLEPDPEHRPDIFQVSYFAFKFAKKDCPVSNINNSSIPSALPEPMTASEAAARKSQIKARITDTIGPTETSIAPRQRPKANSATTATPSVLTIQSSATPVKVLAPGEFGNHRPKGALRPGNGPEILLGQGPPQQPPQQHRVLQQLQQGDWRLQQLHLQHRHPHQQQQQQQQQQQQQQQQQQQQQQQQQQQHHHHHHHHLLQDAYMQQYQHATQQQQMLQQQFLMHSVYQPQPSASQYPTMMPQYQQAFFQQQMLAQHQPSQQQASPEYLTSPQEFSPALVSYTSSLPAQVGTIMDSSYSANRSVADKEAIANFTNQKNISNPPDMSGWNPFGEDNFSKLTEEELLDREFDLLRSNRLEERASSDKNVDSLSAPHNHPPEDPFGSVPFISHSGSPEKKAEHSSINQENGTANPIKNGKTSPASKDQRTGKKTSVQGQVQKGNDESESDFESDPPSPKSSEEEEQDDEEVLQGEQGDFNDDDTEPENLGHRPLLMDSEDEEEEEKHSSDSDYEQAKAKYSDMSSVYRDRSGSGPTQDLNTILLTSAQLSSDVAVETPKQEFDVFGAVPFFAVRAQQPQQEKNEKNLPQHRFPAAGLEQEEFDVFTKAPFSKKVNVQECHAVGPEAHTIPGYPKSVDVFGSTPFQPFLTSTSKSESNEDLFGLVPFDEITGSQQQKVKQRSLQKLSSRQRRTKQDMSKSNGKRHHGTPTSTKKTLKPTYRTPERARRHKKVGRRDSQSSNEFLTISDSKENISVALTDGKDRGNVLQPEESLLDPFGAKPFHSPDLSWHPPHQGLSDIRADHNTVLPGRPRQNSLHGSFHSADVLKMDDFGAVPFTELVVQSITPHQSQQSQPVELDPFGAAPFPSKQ
compound,measurement,setting,value
"CNc1ncc2cc(-c3ccc(-c4cccc(C)n4)cc3Cl)c(=O)n(C[C@H]3OC[C@H](N)CO3)c2n1 [compound 6, G-5555]",Percent Control,EGFR,88%
same,Percent Control,PDPK1,71%
same,Percent Control,DYRK1A,100%
same,Percent Control,RIPK4,100%
same,Percent Control,ZAP70,100%
same,Percent Control,NEK11,100%
same,Percent Control,AURKC,20%
same,Percent Control,ADCK3,100%
same,Percent Control,BMX,100%
same,Percent Control,FLT3(D835H),99%
same,Percent Control,MET(M1250T),45%
same,Percent Control,PKAC-alpha,100%
same,Percent Control,CDK4-cyclinD1,99%
same,Percent Control,p38-beta,100%
same,Percent Control,BTK,63%
same,Percent Control,PAK1,4.5%
same,Percent Control,MAP4K2,32%
same,Percent Control,JAK2,83%
same,Percent Control,DCAMKL2,51%
same,Percent Control,ICK,100%
same,Percent Control,BRK,100%
same,Percent Control,TAOK2,100%
same,Percent Control,ABL1(H396P); nonphosphorylated,56%
same,Percent Control,ABL1(H396P); phosphorylated,94%
same,Percent Control,BIKE,100%
same,Percent Control,JNK1,41%
same,Percent Control,TRKA,64%
same,Percent Control,RPS6KA2; Kin.Dom.1 N-terminal,57%
same,Percent Control,"RPS6KA2; Kin.Dom.2 C-terminal, 1 µM",92%
same,Percent Control,MAK,100%
same,Percent Control,RET(V804L),100%
same,Percent Control,PCTK3,100%
